Results on two compounds are retold here after patent US20260306403A1, “MODIFIED LIPOSOME FOR DRUG DELIVERY, USE OF LIPOSOME FOR DRUG DELIVERY, ESPECIALLY WITH ANTI-CANCER ACTIVITY, AND WAYS TO LOAD LIPOSOME WITH DRUGS, ESPECIALLY WITH ANTI-CANCER ACTIVITY” (BS BIOTECHNA SPOLKA AKCYJNA, priority 2023, published 2026).

Data set [1] can be described thus: Acute toxicity test on Zebrafish larvae, emetine / BEM and staurosporine / BST liposomes, 96 h. The format is in vivo, Zebrafish (Danio rerio). Particulars: 96 h incubation, staurosporine free or in BST. The procedure:
In order to compare the toxicity of emetine and staurosporine with the same drugs loaded into BpH liposomes, an acute toxicity test was conducted on Zebrafish (Danio rerio). The test was designed to determine the acute or lethal toxicity of the chemicals on the embryonic stages of the fish. Briefly, zebrafish larvae were treated with emetine and […] liposomes or staurospoine and staurosporine with BST liposomes for a period of 96 hours.
The embryo culture fluid and solution preparation was embryo culture medium (E3 solution: 5 mmol/L NaCl, 0.17 mmol/L KCl, 0.33 mmol/L CaCl2 and 0.33 mmol/L MgSO4, containing no methylene blue, and with a pH value of approximately 7.2). The experiment was carried out in 24-well plates, 5 embryos per well, 10 per group. The plate was covered and kept in an incubator set at 28±0.5° C. with a light/dark period of 12/12 hours. During the exposure period, larvae were tracked every 24 h and four visual observations, including coagulation of fertilised eggs, lack of somite formation, lack of separation of tail bud from yolk sac and lack of heartbeat, were recorded as indicators of mortality. At the end of the exposure period (96 hpf), acute toxicity was determined based on a positive result from any of the four recorded visual observations and the LC50 was calculated. Liposomes alone without drug loading were also tested.

The subject of a further data set is Zebrafish larvae. Description: Absorption of fluorescently labelled emetine, free and in pH-type liposomes, by Zebrafish larvae. Type of data set: in vivo. The method, then:
To compare the uptake of emetine and pH-type liposomes with emetine, Zebrafish larvae were exposed to fluorescently labelled free emetine and fluorescently labelled emetine encapsulated in pH-type liposomes (synthesis identical to that of 14pHEM) for 4 and 48 h in a concentration range from 0.73 μM to 14.7 μM for emetine and 4.41 μM to 8.82 μM for pH-type liposomes with fluorescent emetine per emetine. Photographs of fish from each group were taken at the final time point to monitor the intensity of fluorescence from absorbed emetine. A Discovery V8 stereoscopic optical microscope and Zeiss equipment were used for the observations.

The nature of data set [2]: Acute toxicity test on Zebrafish larvae, emetine and 14 pH EM liposomes, 24 and 48 h. Details: species or system Zebrafish (Danio rerio). Particulars: in vivo, 48 h exposure, 2 dpf larvae, calculated for emetine, read-out: half maximal lethal concentration (LC50). The procedure: In order to compare the toxicity of emetine and 14 pH EM liposomes with emetine, an acute toxicity test was conducted on Zebrafish (Danio rerio). The test was designed to determine the acute or lethal toxicity of the formulations on the embryonic stages of the fish. Briefly, Zebrafish 2 dpf larvae were treated with emetine and 14 pH EM liposomes with emetine for 24 and 48 hours at concentrations ranging from 0.73 μM to 125 μM calculated for emetine. […] The water for embryo culture and solution preparation was embryo culture medium (E3 solution: 5 mmol/L NaCl, 0.17 mmol/L KCl, 0.33 mmol/L CaCl2 and 0.33 mmol/L MgSO4, containing no methylene blue, and with a pH value of approximately 7.2). The experiment was carried out in 24-well plates, 5 embryos per well, 10 per group. The plate was covered and kept in an incubator set at 28±0.5° C. with a light/dark period of 12/12 hours. During the exposure period, larvae were tracked every 24 hours and four visual observations, including coagulation of fertilised eggs, lack of somite formation, lack of separation of tail bud from yolk sac and lack of heartbeat, were recorded as indicators of mortality.

The conditions of data set [3]: phase I and II clinical trials; cited from earlier work.

In data set [1], `CN[C@@H]1C[C@H]2O[C@@](C)([C@@H]1OC)n1c3ccccc3c3c4c(c5c6ccccc6n2c5c31)C(=O)NC4` [staurosporine] registered an LC50 at 96 h of 17 nM.

Regarding `CC[C@H]1CN2CCc3cc(OC)c(OC)cc3[C@@H]2C[C@@H]1C[C@H]1NCCc2cc(OC)c(OC)cc21` [emetine], the “location of absorbed emetine in larvae” value in the data set on Zebrafish larvae (fluorescence microscopy) was “within the yolk of the larvae, especially in the liver and intestine region”. Further, the “uptake / amount of absorbed emetine” value with Zebrafish larvae (free 1.47, 3.67, 7.35 μM, in liposomes 4.41 and 8.82 μM) is recorded as “increases with dose”. Moreover, the LC50 at 48 h in data set [2] is 5640 nM. In data set [3], the therapeutic index entry was “very limited” and the “toxicity on increasing the dose” value was “cardiac toxicity”.
